Measured values reported in patent publication US7312240B2, “Conformationally constrained paclitaxel analogs and their use as anticancer and anti-Alzheimers agents” (Virginia Tech Intellectual Properties, Inc., priority 2004, dated 2007).

Key:
[1] = test system: PC-3 prostate cell line; assay: Cytotoxicity against PC3 prostate cancer cell line; details: for IC50(cp)/IC50(tx) PC3: ratio of compound IC50 to Taxol IC50, PC3
[2] = test system: purified tubulin; details: for EC50: read-out: ED50, Tb polymerization, Tubulin concentration 5 μM
[3] = test system: A2780 ovarian cancer cell line; assay: Cytotoxicity against A2780 ovarian cancer cell line; details: for IC50(cp)/IC50(tx) A2780: ratio of compound IC50 to Taxol IC50, A2780; for times more potent/active than PTX against A2780: A2780, relative to PTX
[4] = test system: GDP-tubulin; assay: Critical concentration determination of tubulin assembly; type: biochemical; details: Taxoid concentration 10 μM; 37° C., PME buffer, 4% DMSO
Experimental: Critical Concentration Determination. The critical concentration of tubulin in the presence of 10 μM Taxol or Taxol analog was determined from assembly experiments performed at 37° C. with GDP-tubulin in PME buffer (100 mM PIPES, 2 mM MgSO4, 1 mM EGTA, pH=6.90) containing 4% DMSO. The extent of assembly was measured at different tubulin concentrations (0.5-6 μM) by light scattering (apparent absorption at 350 nm). Critical concentrations were calculated from the x-intercepts of plots of apparent A350 nm VS. tubulin concentration.

[5] = test system: Taxol binding site on crosslinked microtubules (polymerized tubulin); assay: Competition binding with fluorescent Taxol N-AB-PT; details: for Inhibit binding F-Taxol: 10 μM Taxol or Taxoid, 5 μM N-AB-PT, 5 μM crosslinked microtubules; for competition experiment with fluorescent Taxol, compared with Taxol/PTX: N-AB-PT 5 μM, increasing competitor (0-30 μM), FIG. 14
Experimental: Competition Binding Experiments. The relative affinities of Taxol and derivatives for polymerized tubulin were assessed by competition assays. Crosslinked microtubules were prepared in glycerol assembly buffer (10 mM phosphate, 1 mM EGTA, 0.1 mM GTP 3.4 M glycerol, pH 6.9) as described by Andreu and Barasoain. Prior to use, the crosslinked microtubules were dialyzed against PME buffer for 16-18 hr. Crosslinked microtubules (5 μM) and the fluorescent Taxol derivative N-AB-PT (15, 5 μM) in PME buffer were incubated for 20 min at room temperature with 10 μM of Taxol or the Taxoid. The fluorescence emission intensity at 412 nm of each sample was recorded using a Jobin-Yvon Horiba Fluoromax-3 spectrofluorometer in a 2 mm×10 mm quartz cell (1ex=320 nm) and compared to the emission intensity of the system in the absence of competitor.
For the fall competition experiment, microtubules, N-AB-PT and varying concentrations of Taxol or 13b (0-30 μM) were treated in the same manner and their emission intensities were measured. The full competition experiment was repeated using pure tubulin assembled by N-AB-PT and identical results were obtained (data not shown).

[6] = test system: paclitaxel resistant and epothilone A resistant cell lines; assay: Activity against paclitaxel resistant and epothilone A resistant cell lines; type: cell-based
[7] = test system: A2780 ovarian cancer cell line; details: meta-bridged analogs, earlier work (Org. Lett. 2001, 3, 2461); cited from earlier work

Compound: C=CC(=O)O[C@@]12CO[C@@H]1C[C@H](O)[C@@]1(C)C(=O)[C@H](OC(C)=O)C3=C(C)[C@@H](OC(=O)[C@H](O)[C@@H](NC(=O)c4ccccc4)c4ccccc4O/C=C\C)C[C@@](O)([C@@H](OC(=O)c4ccccc4)C12)C3(C)C (some centres unmarked) [Compound 12b]
- cytotoxicity against PC3 in words, compared with PTX/Taxol [1]: over two orders of magnitude less cytotoxic
- IC50(cp)/IC50(tx) PC3 [1]: 150
- EC50 [2]: 1.02 ± 0.37 µM
- cytotoxicity against A2780 in words, compared with PTX/Taxol or related analogs ([3]; A2780): over three orders of magnitude less cytotoxic
- IC50(cp)/IC50(tx) A2780 [3]: 1190

Compound: CC(=O)O[C@H]1C(=O)[C@@]2(C)[C@@H]3[C@H](OC(=O)c4ccccc4)[C@]4(O)C[C@H](OC(=O)[C@H](O)[C@@H](NC(=O)c5ccccc5)c5ccccc5C/C=C\C(=O)O[C@]35CO[C@@H]5C[C@@H]2O)C(C)=C1C4(C)C [Compound 13a]
- Critical Tb conc. [4]: 0.53 ± 0.07 µM
- cytotoxicity against PC3 in words, compared with PTX/Taxol [1]: slightly more cytotoxic than Taxol
- IC50(cp)/IC50(tx) PC3 [1]: 0.69
- EC50 [2]: 0.3 ± 0.09 µM
- cytotoxicity against A2780 in words, compared with PTX/Taxol or related analogs ([3]; A2780): approximately twenty times more potent than Taxol
- fold more potent than previous best analog 15 ([3]; A2780): approximately 300 fold
- IC50(cp)/IC50(tx) A2780 [3]: 0.045
- Inhibit binding F-Taxol [5]: 72%

Compound: CC(=O)O[C@H]1C(=O)[C@@]2(C)[C@@H]3[C@H](OC(=O)c4ccccc4)[C@]4(O)C[C@H](OC(=O)[C@H](O)[C@@H](NC(=O)c5ccccc5)c5ccccc5OC/C=C/C(=O)O[C@]35CO[C@@H]5C[C@@H]2O)C(C)=C1C4(C)C [Compound 13b]
- Critical Tb conc. [4]: 1.2 ± 0.24 µM
- cytotoxicity against PC3 in words, compared with PTX/Taxol [1]: equipotent with Taxol
- IC50(cp)/IC50(tx) PC3 [1]: 1.0
- EC50 [2]: 0.28 ± 0.11 µM
- cytotoxicity against A2780 in words, compared with PTX/Taxol or related analogs ([3]; A2780): equipotent with Taxol
- IC50(cp)/IC50(tx) A2780 [3]: 0.97
- Inhibit binding F-Taxol [5]: 30%
- competition experiment with fluorescent Taxol, compared with Taxol/PTX [5]: equal affinity

Compound: CC(=O)OC1C(=O)C2(C)C(O)CC3OCC34OC(=O)CCCc3ccccc3C(NC(=O)c3ccccc3)C(O)C(=O)OC3CC(O)(C(OC(=O)c5ccccc5)C42)C(C)(C)C1=C3C (centres unmarked) [Compound 14a]
- Critical Tb conc. [4]: 0.35 ± 0.06 µM
- cytotoxicity against PC3 in words, compared with PTX/Taxol [1]: more potent than Taxol
- IC50(cp)/IC50(tx) PC3 [1]: 0.67
- EC50 [2]: 0.21 ± 0.09 µM
- cytotoxicity against A2780 in words, compared with PTX/Taxol or related analogs ([3]; A2780): more potent than Taxol
- IC50(cp)/IC50(tx) A2780 [3]: 0.08
- Inhibit binding F-Taxol [5]: 79%

Compound: CC(=O)OC1C(=O)C2(C)C(O)CC3OCC34OC(=O)CCCOc3ccccc3C(NC(=O)c3ccccc3)C(O)C(=O)OC3CC(O)(C(OC(=O)c5ccccc5)C42)C(C)(C)C1=C3C (centres unmarked) [Compound 14b]
- Critical Tb conc. [4]: 1.3 ± 0.33 µM
- cytotoxicity against PC3 in words, compared with PTX/Taxol [1]: slightly less potent
- IC50(cp)/IC50(tx) PC3 [1]: 3.3
- EC50 [2]: 0.83 ± 0.19 µM
- cytotoxicity against A2780 in words, compared with PTX/Taxol or related analogs ([3]; A2780): slightly less potent
- IC50(cp)/IC50(tx) A2780 [3]: 1.2
- Inhibit binding F-Taxol [5]: 7%

Compound: CC(=O)O[C@H]1C(=O)[C@@]2(C)[C@@H]3[C@H](OC(=O)c4ccccc4)[C@]4(O)C[C@H](OC(=O)[C@H](O)[C@@H](NC(=O)c5ccccc5)c5ccccc5/C=C/CC(=O)O[C@]35CO[C@@H]5C[C@@H]2O)C(C)=C1C4(C)C [Compound 15J]
- fold more cytotoxicity compared to PTX against PC3 ([1]; PC3 cell line): 2 fold
- tubulin polymerization activity in words, compared to PTX [2]: superior to PTX
- fold more cytotoxicity compared to PTX ([3]; A2780 cell line, cell line not named): 6 fold
- inhibition of binding of fluorescent taxol, compared with paclitaxel, in words [5]: better than paclitaxel

Compound: CC(=O)O[C@H]1C(=O)[C@@]2(C)[C@@H]3[C@H](OC(=O)c4ccccc4)[C@]4(O)C[C@H](OC(=O)[C@H](O)[C@@H](NC(=O)c5ccccc5)c5ccccc5OC/C=C/C(=O)O[C@]35CO[C@@H]5C[C@@H]2O)C(C)=C1C4(C)C [Compound 15b]
- cytotoxicity against PC3 in words, compared with PTX/Taxol [1]: two fold more cytotoxicity than PTX
- tubulin polymerization activity in words, compared to PTX [2]: superior to PTX
- cytotoxicity against A2780 in words, compared with PTX/Taxol or related analogs ([3]; A2780): more or less equal cytotoxicity
- inhibition of binding of fluorescent taxol, compared with paclitaxel, in words [5]: better than paclitaxel
- competition experiment with fluorescent Taxol, compared with Taxol/PTX [5]: identical in all respect to PTX

Compound: CC(=O)O[C@H]1C(=O)[C@@]2(C)[C@@H]3[C@H](OC(=O)c4ccccc4)[C@]4(O)C[C@H](OC(=O)[C@H](O)[C@@H](NC(=O)c5ccccc5)c5ccccc5C/C=C\C(=O)O[C@]35CO[C@@H]5C[C@@H]2O)C(C)=C1C4(C)C [Compound 15d]
- cytotoxicity against PC3 in words, compared with PTX/Taxol [1]: slightly more cytotoxicity than PTX
- times better activity than paclitaxel [6]: 100 times
- times more potent/active than PTX against A2780 [3]: at least 20 times

Compound: CC(=O)O[C@H]1C(=O)[C@@]2(C)[C@@H]3[C@H](OC(=O)c4ccccc4)[C@]4(O)C[C@H](OC(=O)C(O)C(NC(=O)c5ccccc5)c5cccc(c5)OC/C=C\CCC(=O)O[C@]35CO[C@@H]5C[C@@H]2O)C(C)=C1C4(C)C (some centres unmarked) [Compound 16]
- potency as cytotoxins, fold less than Taxol/PTX [7]: less than one-tenth the activity of Taxol

Compound: CC(=O)O[C@H]1C(=O)[C@@]2(C)[C@@H]3[C@H](OC(=O)c4ccccc4)[C@]4(O)C[C@H](OC(=O)[C@H](O)[C@@H](NC(=O)c5ccccc5)c5ccccc5OCCCC(=O)O[C@]35CO[C@@H]5C[C@@H]2O)C(C)=C1C4(C)C [Compound 16b]
- cytotoxicity against PC3 in words, compared with PTX/Taxol [1]: more or less equal cytotoxicity
- tubulin polymerization activity in words, compared to PTX [2]: superior to PTX
- cytotoxicity against A2780 in words, compared with PTX/Taxol or related analogs ([3]; A2780): more or less equal cytotoxicity
- inhibition of binding of fluorescent taxol, compared with paclitaxel, in words [5]: better than paclitaxel

Compound: CC(=O)O[C@H]1C(=O)[C@@]2(C)[C@@H]3[C@H](OC(=O)c4ccccc4)[C@]4(O)C[C@H](OC(=O)[C@H](O)[C@@H](NC(=O)c5ccccc5)c5ccccc5CCCC(=O)O[C@]35CO[C@@H]5C[C@@H]2O)C(C)=C1C4(C)C [Compound 16d]
- cytotoxicity against PC3 in words, compared with PTX/Taxol [1]: slightly more cytotoxicity than PTX
- times better activity than paclitaxel [6]: 100 times
- times more potent/active than PTX against A2780 [3]: about 10 times

Compound: CC(=O)O[C@H]1C(=O)[C@@]2(C)[C@H]([C@H](OC(=O)c3ccccc3)[C@]3(O)C[C@H](OC(=O)[C@H](O)[C@@H](NC(=O)c4ccccc4)c4ccccc4)C(C)=C1C3(C)C)[C@]1(OC(C)=O)CO[C@@H]1C[C@@H]2O [Taxol, Paclitaxel]
- Critical Tb conc. [4]: 1.8 ± 0.30 µM
- EC50 [2]: 0.5 ± 0.14 µM
- Cytotoxicity (IC50, μg/ml) A2780 ([3]; Example 2, A2780): 0.02 µg/mL
- Inhibit binding F-Taxol [5]: 26%
